Experimental findings from US8853196B2, “Aminochromane, aminothiochromane and amino-1,2,3,4-tetrahydroquinoline derivatives, pharmaceutical compositions containing them, and their use in therapy” (AbbVie Deutschland GmbH & Co. KG, priority 2011, dated 2014) are described below.

Where a name gives a salt, the structure may show the parent alone. Bounds are passed on as bounds.

This experiment deals with T1, human GlyT1c transporter (Homo sapiens, UniProt P48067).
T1 construct: expressed in transfected cells; host or cells: CHO cells (recombinant; membranes)
T1 sequence (P48067 1-706): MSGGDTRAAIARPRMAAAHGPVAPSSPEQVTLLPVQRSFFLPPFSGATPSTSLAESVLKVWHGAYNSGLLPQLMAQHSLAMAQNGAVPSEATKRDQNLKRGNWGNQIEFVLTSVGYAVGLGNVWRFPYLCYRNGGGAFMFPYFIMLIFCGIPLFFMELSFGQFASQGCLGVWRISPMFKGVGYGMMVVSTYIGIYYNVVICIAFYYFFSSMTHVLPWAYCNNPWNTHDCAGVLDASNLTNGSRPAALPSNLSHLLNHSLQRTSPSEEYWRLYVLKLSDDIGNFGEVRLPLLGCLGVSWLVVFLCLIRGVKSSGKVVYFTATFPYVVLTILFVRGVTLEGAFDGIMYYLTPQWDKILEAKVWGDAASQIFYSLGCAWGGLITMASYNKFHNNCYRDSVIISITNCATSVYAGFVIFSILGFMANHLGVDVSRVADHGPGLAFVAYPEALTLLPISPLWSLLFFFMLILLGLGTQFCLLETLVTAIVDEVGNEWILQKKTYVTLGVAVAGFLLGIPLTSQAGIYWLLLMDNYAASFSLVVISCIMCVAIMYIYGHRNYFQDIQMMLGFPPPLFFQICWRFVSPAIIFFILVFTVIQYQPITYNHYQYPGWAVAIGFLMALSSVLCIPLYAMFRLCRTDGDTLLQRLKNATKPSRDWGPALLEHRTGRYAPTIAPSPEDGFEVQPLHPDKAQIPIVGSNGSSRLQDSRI
Put plainly: Radioligand binding assay using recombinant CHO cell membranes expressing human GlyT1. The conditions noted are these: values given as upper bounds, read-out: radioligand binding Kiapp. On the procedure: 2. Radioligand Binding Assays Using Recombinant CHO Cell Membranes Expressing Human GlyT1:
Radioligand binding to human GlyT1c transporter-expressing membranes was determined as described in Mezler et al., Molecular Pharmacology 74:1705-1715, 2008.
With `Cc1ncc(S(=O)(=O)NCc2ccc3c(c2)C(Cc2ccccc2)C(N)CO3)n1C` (centres unmarked) [Example 58, 2,3-Dimethyl-3H-imidazole-4-sulfonic acid (3-amino-4-benzyl-chroman-6-ylmethyl)-amide 2,2,2-trifluoroacetate], the Ki was at most 1 µM.

Turning to `N[C@@H]1COc2ccc(CNS(=O)(=O)CC3CC3)cc2[C@@H]1Cc1ccccc1` (relative stereo) [Example 67, cis-N-(-3-Amino-4-benzyl-chroman-6-ylmethyl)-C-cyclopropyl-methanesulfonamide], the Ki was at most 0.01 µM. For `CN[C@@H]1COc2ccc(CNS(=O)(=O)c3cnn(C)c3)cc2[C@H]1Cc1ccccc1` (relative stereo) [Example 6b, trans-N-{[-4-benzyl-3-(methylamino)-3,4-dihydro-2H-chromen-6-yl]methyl}-1-methyl-1H-pyrazole-4-sulfonamide], the Ki was at most 0.01 µM. For `Cc1cc(S(=O)(=O)NCc2ccc3c(c2)C(Cc2ccccc2)C(N)CO3)c(C)o1` (centres unmarked) [Example 50, 2,5-Dimethyl-furan-3-sulfonic acid (3-amino-4-benzyl-chroman-6-ylmethyl)-amide 2,2,2-trifluoroacetate] the value was at most 0.1 µM. Consider `CCCS(=O)(=O)NCc1ccc2c(c1)[C@@H](Cc1ccccc1)[C@H](NC)CO2` (relative stereo) [Example 7b, trans-N-{[4-benzyl-3-(methylamino)-3,4-dihydro-2H-chromen-6-yl]methyl}propane-1-sulfonamide], for which the Ki is at most 0.1 µM. Next, `CN[C@@H]1COc2ccc(CNS(=O)(=O)CC3CC3)cc2[C@H]1Cc1ccccc1` (relative stereo) [Example 8b, trans-N-{[4-benzyl-3-(methylamino)-3,4-dihydro-2H-chromen-6-yl]methyl}-1-cyclopropylmethanesulfonamide]: at most 0.1 µM; `Cn1cnc(S(=O)(=O)NCc2ccc3c(c2)[C@H](Cc2ccccc2)[C@H](N)CO3)c1` (relative stereo) [Example 12, cis-1-Methyl-1H-imidazole 4-sulfonic acid (3-amino-4-benzyl-chroman-6-ylmethyl)-amide]: at most 0.01 µM; `Cn1cnc(S(=O)(=O)NCc2ccc3c(c2)[C@H](Cc2ccccc2)[C@H](NCC2CCCC2)CO3)c1` (relative stereo) [Example 40, cis-N-((-4-benzyl-3-((cyclopentylmethyl)amino)chroman-6-yl)methyl)-1-methyl-1H-imidazole-4-sulfonamide 2,2,2-trifluoroacetate]: at most 0.1 µM. `CCCS(=O)(=O)NCCOc1ccc2c(c1)[C@@H](Cc1ccccc1)[C@H](NC)C(C)(C)O2` (relative stereo) [Example 75, trans-Propane-1-sulfonic acid (2-(-4-benzyl-2,2-dimethyl-3-methylamino-chroman-6-yloxy)-ethyl]-amide]: the Ki was at most 1 µM. Next, `Cn1cnc(S(=O)(=O)NCCOc2ccc3c(c2)[C@H](Cc2ccccc2)[C@H](N2CCC2)CO3)c1` (relative stereo) [Example 10, cis-1-Methyl-1H-imidazole-4-sulfonic acid [2-(3-azetidin-1-yl-4-benzyl-chroman-6-yloxy)-ethyl]-amide]: at most 0.01 µM; `CC(C)CN[C@@H]1COc2ccc(CNS(=O)(=O)c3cn(C)cn3)cc2[C@@H]1Cc1ccccc1` (relative stereo) [Example 37, cis-N-((-4-benzyl-3-(isobutylamino)chroman-6-yl)methyl)-1-methyl-1H-imidazole-4-sulfonamide 2,2,2-trifluoroacetate]: at most 0.01 µM. For the compound `CCS(=O)(=O)NCc1ccc2c(c1)C(Cc1ccccc1)C(NC)CO2` (single isomer, unassigned; isomer 2) [Example 79, cis-N-{[4-Benzyl-3-(methyl-amino)-3,4-dihydro-2H-chromen-6-yl]methy}ethane-sulfonamide. (Isomer 2)], the Ki was at most 0.1 µM. Next, `Cn1cnc(S(=O)(=O)NCc2ccc3c(c2)[C@@H](Cc2ccccc2)[C@H](N)CO3)c1` (relative stereo) [Example 13, trans-1-Methyl-1H-imidazole-4-sulfonic acid (3-amino-4-benzyl-chroman-6-ylmethyl)-amide]: at most 0.01 µM. For `CC(C)CS(=O)(=O)NCc1ccc2c(c1)C(Cc1ccccc1)C(N)CO2` (centres unmarked) [Example 51, 2-Methyl-propane-1-sulfonic acid (3-amino-4-benzyl-chroman-6-ylmethyl)-amide 2,2,2-trifluoroacetate] the value was at most 10 µM; for `CCCS(=O)(=O)NCc1ccc2c(c1)C(Cc1ccccc1)C(N1CCC1)CO2` (centres unmarked) [Example 20, Propane-1-sulfonic acid (3-azetidin-1-yl-4-benzyl-chroman-6-ylmethyl)-amide; trifluoro-acetic acid salt], at most 0.1 µM; for `CS(=O)(=O)NCc1ccc2c(c1)[C@H](Cc1ccccc1)[C@H](N1CCCC1)CO2` (relative stereo) [Example 64, cis-N-(-4-Benzyl-3-pyrrolidin-1-yl-chroman-6-ylmethyl)-methanesulfonamide], at most 1 µM.

For the compound `Cn1cnc(S(=O)(=O)NCc2ccc3c(c2)[C@H](Cc2ccccc2)[C@H](NCC(C)(C)C)CO3)c1` (relative stereo) [Example 36, cis-N-((-4-benzyl-3-(neopentylamino)chroman-6-yl)methyl)-1-methyl-1H-imidazole-4-sulfonamide 2,2,2-trifluoroacetate], the Ki was at most 0.1 µM. Regarding `CCS(=O)(=O)NCc1ccc2c(c1)[C@H](Cc1ccccc1)[C@H](N1CCCC1)CO2` (relative stereo) [Example 63, cis-Ethanesulfonic acid (-4-benzyl-3-pyrrolidin-1-yl-chroman-6-ylmethyl)-amide], the Ki is at most 0.1 µM.

As to `CN[C@@H]1COc2ccc(CNS(=O)(=O)c3cn(C)cn3)cc2[C@@H]1Cc1ccccc1` (relative stereo) [Example 5a, cis-1-Methyl-1H-imidazole-4-sulfonic acid (4-benzyl-3-methylamino-chroman-6-ylmethyl)-amide], the Ki is at most 0.01 µM. For `CN[C@@H]1COc2ccc(CNS(=O)(=O)c3cnn(C)c3)cc2[C@@H]1Cc1ccccc1` (relative stereo) [Example 6a, cis-N-{[4-benzyl-3-(methylamino)-3,4-dihydro-2H-chromen-6-yl]methyl}-1-methyl-1H-pyrazole-4-sulfonamide] the value was at most 0.01 µM; for `Cn1cc(S(=O)(=O)NCc2ccc3c(c2)[C@H](Cc2ccccc2)[C@H](N2CCC2)CO3)cn1` (relative stereo) [Example 15, cis-1-Methyl-1H-pyrazole-4-sulfonic acid (3-azetidin-1-yl-4-benzyl-chroman-6-ylmethyl)-amide], at most 0.01 µM.

Regarding `Cn1cnc(S(=O)(=O)NCc2ccc3c(c2)[C@H](Cc2ccccc2)[C@H](N2CCCC2)CO3)c1` (relative stereo) [Example 62, cis-1-Methyl-1H-imidazole-4-sulfonic acid (-4-benzyl-3-pyrrolidin-1-yl-chroman-6-ylmethyl)-amide], the Ki was at most 0.01 µM.

Consider `CCCS(=O)(=O)NCCOc1ccc2c(c1)[C@H](Cc1ccccc1)[C@H](NC)CO2` (relative stereo) [Example 3a, cis-N-(2-{[-4-Benzyl-3-(methylamino)-3,4-dihydro-2H-chromen-6-yl]oxy}ethyl)propane-1-sulfonamide], for which the Ki is at most 0.1 µM.
